The source of these data is patent publication US7692014B2, “Inhibitors of the HIV integrase enzyme” (Pfizer, Inc., priority 2004, dated 2010).

SMILES strings stand for the structures. pIC50: −log10 of the molar value.

The experiment addresses T1, Full-length wild type HIV-1 integrase (SF1) (Human immunodeficiency virus type 1 group M subtype B, UniProt P04585).
T1 construct: made in house; host or cells: E. coli BL21 (DE3), pET24a vector
Briefly: Integrase strand-transfer scintillation proximity assay. The conditions noted are these: integrase strand-transfer SPA; read-out: IC50. It counts as biochemical. The text has this:
Integrase Strand-Transfer Scintillation Proximity Assay Oligonucleotides
The annealed product represents preprocessed viral ds-DNA derived from the LTR U5 sequence of the viral genome. A ds-DNA control to test for non-specific interactions was made using a 3′ di-deoxy derivative of oligonucleotide #1 annealed to oligonucleotide #2. The CA overhang at the 5′ end of the non-biotinylated strand of the ds-DNA was created artificially by using a complimentary DNA oligonucleotide shortened by 2 base pairs. This configuration eliminates the requisite 3′ processing step of the integrase enzyme prior to the strand-transfer mechanism.
Host ds-DNA was prepared as an unlabeled and [^3H]-thymidine labeled product from annealed oligonucleotide #3—5-[…]-3′ (SEQ ID NO: 3), and oligonucleotide #4—5′-[…]-3′ (SEQ ID NO: 4), both synthesized by TriLink BioTechnologies, Inc. (San Diego, Calif.). The annealed product had overhanging 3′ ends of poly(dA). […] The radiolabeled product was purified using a NENSORB cartridge and stored in stabilized aqueous solution (PerkinElmer).
Reagents: Streptavidin-coated polyvinyltoluene (PVT) SPA beads were purchased from Amersham Biosciences (Piscataway, N.J.). Cesium chloride was purchased from Shelton Scientific, Inc. (Shelton, Conn.). White, polystyrene, flat-bottom, non-binding surface, 96-well plates were purchased from Corning. All other buffer components were purchased from Sigma (St. Louis, Mo.) unless otherwise indicated. Enzyme Construction: Full-length wild type HIV-1 integrase (SF1) sequence (amino acids 1-288) was constructed in a pET24a vector (Novagen, Madison, Wis.). […] Enzyme Purification: Full length wild-type HIV Integrase was expressed in E.coli BL21 (DE3) cells and induced with 1 mM isopropyl-1 thio-β-D-galactopyranoside (IPTG) when cells reached an optical density between 0.8-1.0 at 600 nm. Cells were lysed by microfluidation in 50 mM HEPES pH 7.0, 75 mM NaCl, 5 mM DTT, 1 mM 4-(2-Aminoethyl)benzenesulfonylfluoride HCl (AEBSF). Lysate was then centrifuged 20 minutes at 11 k rpm in GSA rotor in Sorvall RC-5B at 4° C. Supernant was discarded and pellet resuspended in 50 mM HEPES pH 7.0, 750 mM NaCl, 5 mM DTT, 1 mM AEBSF and homogenized in a 40 mL Dounce homogenizer for 20 minutes on ice. Homogenate was then centrifuged 20 minutes at 11 k rpm in SS34 rotor in Sorvall RC-5B at 4° C. Supernant was discarded and pellet resuspended in 50 mM HEPES pH 7.0, 750 mM NaCl, 25 mM CHAPS, 5 mM DTT, 1 mM AEBSF. Preparation was then centrifuged 20 minutes at 11 k rpm in SS34 rotor in Sorvall RC-5B at 4° C.
Supernant was then diluted 1:1 with 50 mM HEPES pH 7.0, 25 mM CHAPS, 1 mM DTT, 1 mM AEBSF and loaded onto a Q-Sepharose column pre-equilibrated with 50 mM HEPES, pH 7.0, 375 mM NaCl, 25 mM CHAPS, 1 mM DTT, 1 mM AEBSF. The flow through peak was collected and NaCl diluted to 0.1 M with 50 mM HEPES pH 7.0, 25 mM CHAPS, 1 mM DTT, 0.5 mM AEBSF and loaded onto a SP-Sepharose column pre-equilibrated with 50 mM HEPES pH 7.0, 100 mM NaCl, 25 mM CHAPS, 1 mM DTT, 0.5 mM AEBSF. After washing the column with the equilibration buffer, a 100 to 400 mM NaCl gradient was run. The eluted integrase was concentrated and run on a S-300 gel diffusion column using 50 mM HEPES pH 7.0, 500 mM NaCl, 25 mM CHAPS, 1 mM DTT, 0.5 mM AEBSF. […] All columns were run in a 4° C. cold room.
Viral DNA Bead Preparation: Streptavidin-coated SPA beads were suspended to 20 mg/mL in 25 mM 3-morpholinopropanesulfonic acid (MOPS) (pH 7.2) and 1.0% NaN3.
In general terms: In a scintillation proximity assay essentially only radioactivity close to the scintillant gives light.

In the case of `O=c1c2ncc3c(c(COCCOC4CCCCC4)cn3Cc3ccc(F)cc3)c2ccn1O` [Example 34, 1-{[2-(cyclohexyloxy)ethoxy]methyl}-3-(4-fluorobenzyl)-7-hydroxy-3,7-dihydro-6H-pyrrolo[2,3-c]-1,7-naphthyridin-6-one], the pIC50 is 7.35.

For the compound `O=c1c2ncc3c(c(CNCc4ccccn4)cn3Cc3ccc(F)cc3)c2ccn1O` [Example 44], the pIC50 is 7.51.

As for `O=c1c2ncc3c(c(CN4CCc5ccccc5C4)cn3Cc3ccc(F)cc3)c2ccn1O` [Example 10, 1-(3,4-dihydroisoquinolin-2(1H)-ylmethyl)-3-(4-fluorobenzyl)-7-hydroxy-3,7-dihydro-6H-pyrrolo[2,3-c]-1,7-naphthyridin-6-one], the pIC50 is 7.40.

Regarding `CCN(Cc1ccc(C)cc1)Cc1cn(Cc2ccc(F)cc2)c2cnc3c(=O)n(O)ccc3c12` [Example 51, 1-{[ethyl(4-methylbenzyl)amino]methyl}-3-(4-fluorobenzyl)-7-hydroxy-3,7-dihydro-6H-pyrrolo[2,3-c]-1,7-naphthyridin-6-one], the pIC50 was 7.76.

Take `O=C1CCCN1CC1(O)CCN(Cc2cn(Cc3ccc(F)cc3)c3cnc4c(=O)n(O)ccc4c23)CC1` [Example 18, 3-(4-fluorobenzyl)-7-hydroxy-1-({4-hydroxy-4-[(2-oxopyrrolidin-1-yl)methyl]piperidin-1-yl}methyl)-3,7-dihydro-6H-pyrrolo[2,3-c]-1,7-naphthyridin-6-one]: the pIC50 was 7.96.

For `O=C(CN1CCN(Cc2cn(Cc3ccc(F)cc3)c3cnc4c(=O)n(O)ccc4c23)CC1)N1CCCC1` [Example 15, 3-(4-fluorobenzyl)-7-hydroxy-1-{[4-(2-oxo-2-pyrrolidin-1-ylethyl)piperazin-1-yl]methyl}-3,7-dihydro-6H-pyrrolo[2,3-c]-1,7-naphthyridin-6-one], the pIC50 was 8.30.

Regarding `O=c1c2ncc3c(c(S(=O)(=O)NCc4ccc(F)cc4)cn3Cc3ccc(F)cc3)c2ccn1O` [Example 25, N,3-bis(4-fluorobenzyl)-7-hydroxy-6-axo-6,7-dihydro-3H-pyrrolo[2,3-c]-1,7-naphthyridine-1-sulfonamide], the pIC50 is 7.46.

Take `O=C(NCC(F)(F)F)c1cn(Cc2ccc(F)cc2)c2cnc3c(=O)n(O)ccc3c12` [Example 30, 3-(4-fluorobenzyl)-7-hydroxy-6-oxo-N-(2,2,2-trifluoroethyl)-6,7-dihydro-3H-pyrrolo[2,3-c]-1,7-naphthyridine-1-carboxamide]: the pIC50 is 7.89.

With `O=c1c2ncc3c(c(CN4CCCCC4CO)cn3Cc3ccc(F)cc3)c2ccn1O` (centres unmarked) [Example 49, 3-(4-fluorobenzyl)-7-hydroxy-1-{[2-(hydroxymethyl)piperidin-1-yl]methyl}-3,7-dihydro-6H-pyrrolo[2,3-c]-1,7-naphthyridin-6-one], the pIC50 is 7.89.

Turning to `O=c1c2ncc3c(c(CN4CCN5C[C@H](O)CC5C4)cn3Cc3ccc(F)cc3)c2ccn1O` (stereo partly drawn) [Example 55, 3-(4-fluorobenzyl)-7-hydroxy-1-{[(7R)-7-hydroxyhexahydropyrrolo [1,2-a]pyrazin-2(1H)-yl]methyl}-3,7-dihydro-6H-pyrrolo[2,3-c]-1,7-naphthyridin-6-one], the pIC50 is 8.15.

Consider `O=c1c2ncc3c(c(COC[C@@H](O)CO)cn3Cc3ccc(F)cc3)c2ccn1O` [Example 31, 1-({[(2S)-2,3-dihydroxypropyl]oxy}methyl)-3-(4-fluorobenzyl)-7-hydroxy-3,7-dihydro-6H-pyrrolo(2,3-c]-1,7-naphthyridin-6-one], for which the pIC50 was 8.05.

For `O=c1c2ncc3c(c(COCCc4ccccn4)cn3Cc3ccc(F)cc3)c2ccn1O` [Example 33, 3-(4-fluorobenzyl)-7-hydroxy-1-[(2-pyridin-2-ylethoxy)methyl]-3,7-dihydro-6H-pyrrolo[2,3-c]-1,7-naphthyridin-6-one], the pIC50 is 7.59.

As for `O=C1c2ncc3c(ccn3Cc3ccc(F)cc3)c2CCCN1O` [Example 3, 3-(4-Fluorobenzyl)-7-hydroxy-7,8,9,10-tetrahydropyrrolo[3′,2′:4,5]pyrido[2,3-c]azepin-6(3H)-one], the pIC50 is 7.77.

Turning to `O=C1c2ncc3c(ccn3Cc3ccc(F)cc3)c2CCCN1O` [Example 45, 3-(4-fluorobenzyl)-7-hydroxy-7,8,9,10-tetrahydropyrrolo[3′,2′: 4,5]pyrido[2,3-c]azepin-6(3H)-one], the negative logarithm of the IC50 (pIC50) was 7.62.

`NC(=O)[C@H]1CCCN1Cc1cn(Cc2ccc(F)cc2)c2cnc3c(=O)n(O)ccc3c12` [Example 12, 1-{[3-(4-fluorobenzyl)-7-hydroxy-6-oxo-6,7-dihydro-3H-pyrrolo[2,3-c]-1,7-naphthyridin-1-yl]methyl)-D-prolinamide]: the pIC50 was 7.89.

`O=c1c2ncc3c(c(CN4CCN(CCN5CCOCC5)CC4)cn3Cc3ccc(F)cc3)c2ccn1O` [Example 58, 3-(4-fluorobenzyl)-7-hydroxy-1-{[4-(2-morpholin-4-ylethyl)piperazin-1-yl]methyl}-3,7-dihydro-6H-pyrrolo[2,3-c]-1,7-naphthyridin-6-one]: the pIC50 was 7.66.

With `O=c1c2ncc3c(c(COC4CCOCC4)cn3Cc3ccc(F)cc3)c2ccn1O` [Example 37, 3-(4-fluorobenzyl)-7-hydroxy-1-[(tetrahydro-2H-pyran-4-yloxy)methyl]-3,7-dihydro-6H-pyrrolo[2,3-c]-1,7-naphthyridin-6-one], the pIC50 is 7.64.

On to `CCN(CC)CCN(CC)Cc1cn(Cc2ccc(F)cc2)c2cnc3c(=O)n(O)ccc3c12` [Example 50, 1-{[[2-(diethylamino)ethyl] (ethyl)amino]methyl}-3-(4-fluorobenzyl)-7-hydroxy-3,7-dihydro-6H-pyrrolo[2,3-c]-1,7-naphthyridin-6-one], for which the pIC50 was 7.94.

Consider `O=C(NCc1ccccn1)c1cn(Cc2ccc(F)cc2)c2cnc3c(=O)n(O)ccc3c12` [Example 29, 3-(4-fluorobenzyl)-7-hydroxy-6-oxo-N-(pyridin-2-ylmethyl)-6,7-dihydro-3H-pyrrolo[2,3-c]-1,7-naphthyridine-1-carboxamide], for which the pIC50 was 7.92.

On to `O=C1NC[C@@H]2CCN(Cc3cn(Cc4ccc(F)cc4)c4cnc5c(=O)n(O)ccc5c34)C[C@H]12` [Example 56, 3-(4-fluorobenzyl)-7-hydroxy-1-{[(3aR,7aR)-3-oxooctahydro-5H-pyrrolo[3,4-c]pyridin-5-yl]methyl}-3,7-dihydro-6H-pyrrolo[2,3-c]-1,7-naphthyridin-6-one], for which the pIC50 is 7.94.

Turning to `CC(=O)N1CCN(C(=O)c2cn(Cc3ccc(F)cc3)c3cnc4c(=O)n(O)ccc4c23)CC1` [Example 27, 1-[(4-acetylpiperazin-1-yl)carbonyl]-3-(4-fluorobenzyl)-7-hydroxy-3,7-dihydro-6H-pyrrolo[2,3-c]-1,7-naphthyridin-6-one], the pIC50 was 7.89.

In the case of `CCCNCc1cn(Cc2ccc(F)cc2)c2cnc3c(=O)n(O)ccc3c12` [Example 40, 3-(4-fluorobenzyl)-7-hydroxy-1-[(propylamino)methyl]-3,7-dihydro-6H-pyrrolo[2,3-c]-1,7-naphthyridin-6-one], the pIC50 is 7.21.

As for `O=c1c2ncc3c(c(CN4CCC(O)CC4)cn3Cc3ccc(F)cc3)c2ccn1O` [Example 53, 3-(4-fluorobenzyl)-7-hydroxy-1-[(4-hydroxypiperidin-1-yl)methyl]-3,7-dihydro-6H-pyrrolo[2,3-c]-1,7-naphthyridin-6-one], the pIC50 is 8.15.

As usually defined, the pIC50 is the IC50 on a negative log10 scale, so that one unit is a factor of ten.
